Read-outs that look alike come from different tables or passages of the source.

Holding throughout (format): cell-based
For one data set, the system named is wild type HBV. Briefly: Anti-HBV assay in AD-38 cell line (HBV in culture supernatant). As to conditions: for EC50: read-out: Anti-HBV activity EC50; for EC90: read-out: Anti-HBV activity EC90. Here is the method: The anti-HBV activity of the compounds was determined by treating the AD-38 cell line carrying wild type HBV under the control of tetracycline (see Ladner S. K., Otto M. J., Barker C. S., Zaifert K., Wang G. H., Guo J. T., Seeger C. & King R. W. Antimicrob. Agents Chemother. 1997, 41, 1715-20). Removal of tetracycline from the medium [Tet (−)] results in the production of HBV. The levels of HBV in the culture supernatant fluids from cells treated with the compounds were compared with that of the untreated controls. Control cultures with tetracycline [Tet (+)] were also maintained to determine the basal levels of HBV expression. 3TC was included as positive control.
The median effective concentrations (EC50) ranges of several of the compounds described herein against HBV are shown in Table 3: […]

Data set [1] in a line: Cellular toxicity assay in HepG2 cells. As to conditions: human, HepG2 cells; read-out: Cytotoxicity; CC50 (μM) HepG2. How it is done: (§1) The toxicity of the compounds was assessed in Vero, human PBM, CEM (human lymphoblastoid), MT-2, and HepG2 cells, as described previously (see Schinazi R. F., Sommadossi J.-P., Saalmann V., Cannon D. L., Xie M.-Y., Hart G. C., Smith G. A. & Hahn E. F. Antimicrob. Agents Chemother. 1990, 34, 1061-67). Cycloheximide was included as positive cytotoxic control, and untreated cells exposed to solvent were included as negative controls. The cytotoxicity IC50 was obtained from the concentration-response curve using the median effective method described previously (see Chou T.-C. & Talalay P. Adv. Enzyme Regul. 1984, 22, 27-55; Belen'kii M. S. & Schinazi R. F. Antiviral Res. 1994, 25, 1-11).

Data set [2] is described as follows: Cellular toxicity assay in human PBM cells. As to conditions: human PBM cells, read-out: Cytotoxicity, CC50 (μM) PBM. Here is the method:
as §1

Where [3] appears, read: Hepatitis B virus, AD-38 cell line, Tet (-).

Usually EC50 stands for the concentration needed to bring the measured effect to its halfway point. A word on the EC90: it is the concentration at which the effect reaches the 90% level. For the compound `Nc1ccn([C@@H]2CS[C@H](CO)O2)c(=O)n1` [Compound 3TC, lamivudine, reference compound], in the data set with wild type HBV (setting [3]), the half-maximal effective concentration (EC50) lay within 0.1 to 1 µM and the EC90 fell in the range of 1 to 10 µM.

For the compound `CCOP(=O)(Cn1cc(CNC(=O)C(=O)c2c(C)c(C(=O)Nc3ccc(F)c(F)c3)n(C)c2C)nn1)OCC` [Compound 68, Diethyl((4-((2-(5-((3,4-difluorophenyl)carbamoyl)-1,2,4-trimethyl-1H-pyrrol-3-yl)-2-oxoacetamido)methyl)-1H-1,2,3-triazol-1-yl)methyl) phosphonate], the EC50 with wild type HBV (Hepatitis B virus) was in the range of 0.1 to 1 µM. Moreover, the CC50 in data set [1] is greater than 100 µM; in data set [2], 70 µM.

Regarding `Cc1c(C(=O)C(=O)NCc2cn(CCCCCCn3cc(CNC(=O)C(=O)c4c(C)c(C(=O)Nc5ccc(F)c(F)c5)n(C)c4C)nn3)nn2)c(C)n(C)c1C(=O)Nc1ccc(F)c(F)c1` [Compound 71, 4,4′-(2,2′-(((Hexane-1,6-diylbis(1H-1,2,3-triazole-1,4-diyl))bis(methylene))bis(azanediyl))bis(2-oxoacetyl))bis(N-(3,4-difluorophenyl)-1,3,5-trimethyl-1H-pyrrole-2-carboxamide)], in the data set on wild type HBV (setting [3]), the concentration giving a half-maximal response (EC50) was 0.1 to 1 µM and the concentration for an effect of 90% (EC90) is 1 to 10 µM. Further, in data set [1], the CC50 was greater than 100 µM. The CC50 in data set [2] (human) was greater than 100 µM.

For the compound `Cc1c(C(=O)C(=O)NCc2cn(CCCCCCCCn3cc(CNC(=O)C(=O)c4c(C)c(C(=O)Nc5ccc(F)c(F)c5)n(C)c4C)nn3)nn2)c(C)n(C)c1C(=O)Nc1ccc(F)c(F)c1` [Compound 74, 4,4′-(2,2′-(((Octane-1,8-diylbis(1H-1,2,3-triazole-1,4-diyl))bis(methylene))bis(azanediyl))bis(2-oxoacetyl))bis(N-(3,4-difluorophenyl)-1,3,5-trimethyl-1H-pyrrole-2-carboxamide)], in the data set on wild type HBV (setting [3]), the EC50 lay in the range of 0.0001 to 0.001 µM and the EC90 is 0.001 to 0.01 µM. For the same compound, the CC50 in data set [1] is greater than 100 µM. In addition, in data set [2] (human), the CC50 is greater than 100 µM.

Turning to `Cc1c(C(=O)C(=O)NCc2cn(CCCCCCCCCCn3cc(CNC(=O)C(=O)c4c(C)c(C(=O)Nc5ccc(F)c(F)c5)n(C)c4C)nn3)nn2)c(C)n(C)c1C(=O)Nc1ccc(F)c(F)c1` [Compound 77, 4,4′-(2,2′-(((decane-1,10-diylbis(1H-1,2,3-triazole-1,4-diyl))bis(methylene))bis(azanediyl))bis (2-oxoacetyl))bis(N-(3,4-difluorophenyl)-1,3,5-trimethyl-1H-pyrrole-2-carboxamide)], in the data set with wild type HBV (setting [3]), the half-maximal effective concentration (EC50) fell in the range of 0.001 to 0.01 µM and the EC90 lay within 0.1 to 1 µM. Further, the CC50 in data set [1] was greater than 100 µM. In data set [2] (human), the CC50 was greater than 100 µM.

As for `Cc1c(C(=O)C(=O)NCc2cn(CCOCCn3cc(CNC(=O)C(=O)c4c(C)c(C(=O)Nc5ccc(F)c(F)c5)n(C)c4C)nn3)nn2)c(C)n(C)c1C(=O)Nc1ccc(F)c(F)c1` [Compound 85, 4,4′-(2,2′-((((oxybis(ethane-2,1-diyl))bis(1H-1,2,3-triazole-1,4-diyl))bis(methylene))bis(azanediyl))bis(2-oxoacetyl))bis(N-(3,4-difluorophenyl)-1,3,5-trimethyl-1H-pyrrole-2-carboxamide)], the 50% effective concentration (EC50) in the data set with wild type HBV (setting [3]) was in the range of 1 to 10 µM.

Consider `Cc1c(C(=O)C(=O)NCc2cn(CCOCCOCCn3cc(CNC(=O)C(=O)c4c(C)c(C(=O)Nc5ccc(F)c(F)c5)n(C)c4C)nn3)nn2)c(C)n(C)c1C(=O)Nc1ccc(F)c(F)c1` [Compound 89, 4,4′-(2,2′-(((((Ethane-1,2-diylbis(oxy))bis(ethane-2,1-diyl))bis(1H-1,2,3-triazole-1,4-diyl))bis (methylene))bis(azanediyl))bis(2-oxoacetyl))bis(N-(3,4-difluorophenyl)-1,3,5-trimethyl-1H-pyrrole-2-carboxamide)], for which the concentration for a half-maximal effect (EC50) with wild type HBV (setting [3]) was in the range of 1 to 10 µM. Besides, the CC50 in data set [1] is greater than 100 µM; in data set [2] (human), 68 µM.

On to `Cc1c(C(=O)C(=O)NCc2cn(CCOCCOCCOCCn3cc(CNC(=O)C(=O)c4c(C)c(C(=O)Nc5ccc(F)c(F)c5)n(C)c4C)nn3)nn2)c(C)n(C)c1C(=O)Nc1ccc(F)c(F)c1` [Compound 94, 4,4′-(2,2′-((((((oxybis(ethane-2,1-diyl))bis(oxy))bis(ethane-2,1-diyl))bis(1H-1,2,3-triazole-1,4-diyl))bis(methylene))bis(azanediyl))bis(2-oxoacetyl))bis(N-(3,4-difluorophenyl)-1,3,5-trimethyl-1H-pyrrole-2-carboxamide)], for which, in the data set with wild type HBV (setting [3]), the 50% effective concentration (EC50) fell in the range of 0.001 to 0.01 µM. Besides, the CC50 in data set [1] and in data set [2] (human) was greater than 100 µM in each case.

With `Cc1c(C(=O)C(=O)NCc2cn(CCOCCOCCOCCOCCOCCn3cc(CNC(=O)C(=O)c4c(C)c(C(=O)Nc5ccc(F)c(F)c5)n(C)c4C)nn3)nn2)c(C)n(C)c1C(=O)Nc1ccc(F)c(F)c1` [Compound 95, 4,4′-(2,2′-((((3,6,9,12,15-Pentaoxaheptadecane-1,17-diyl)bis(1H-1,2,3-triazole-1,4-diyl))bis (methylene))bis(azanediyl))bis(2-oxoacetyl))bis(N-(3,4-difluorophenyl)-1,3,5-trimethyl-1H-pyrrole-2-carboxamide)], in the data set on wild type HBV (AD-38 cell line, Tet (-)), the EC50 lay within 0.01 to 0.1 µM.

For the compound `Cc1c(C(=O)C(=O)NCc2cn(CCOCCOCC(COCCOCCN=[N+]=[N-])(COCCOCCN=[N+]=[N-])COCCOCCn3cc(CNC(=O)C(=O)c4c(C)c(C(=O)Nc5ccc(F)c(F)c5)n(C)c4C)nn3)nn2)c(C)n(C)c1C(=O)Nc1ccc(F)c(F)c1` [Compound 108, 4,4′-(2,2′-((((8,8-bis((2-(2-azidoethoxy)ethoxy)methyl)-3,6,10,13-tetraoxapentadecane-1,15-diyl)bis(1H-1,2,3-triazole-1,4-diyl))bis(methylene))bis(azanediyl))bis(2-oxoacetyl))bis(N-(3,4-difluorophenyl)-1,3,5-trimethyl-1H-pyrrole-2-carboxamide)], in the data set on wild type HBV (setting [3]), the EC50 was 0.01 to 0.1 µM. Moreover, the concentration for an effect of 90% (EC90) in the data set with wild type HBV (setting [3]) was 0.1 to 1 µM. Further, the CC50 in data set [1] and in data set [2] (human) was greater than 100 µM each time.

For the compound `Cc1c(C(=O)C(=O)NCc2cn(CCOCCOCC(COCCOCCN=[N+]=[N-])(COCCOCCn3cc(CNC(=O)C(=O)c4c(C)c(C(=O)Nc5ccc(F)c(F)c5)n(C)c4C)nn3)COCCOCCn3cc(CNC(=O)C(=O)c4c(C)c(C(=O)Nc5ccc(F)c(F)c5)n(C)c4C)nn3)nn2)c(C)n(C)c1C(=O)Nc1ccc(F)c(F)c1` [Compound 109], the half-maximal effective concentration (EC50) in the data set with wild type HBV (setting [3]) lay in the range of 0.1 to 1 µM. In addition, in the data set on wild type HBV (setting [3]), the EC90 lay within 1 to 10 µM. Also, the CC50 in data set [1] and in data set [2] (human) was greater than 100 µM throughout.

As for `Cc1c(C(=O)C(=O)NCc2cn(CCOCCOCC(COCCOCCn3cc(CNC(=O)C(=O)c4c(C)c(C(=O)Nc5ccc(F)c(F)c5)n(C)c4C)nn3)(COCCOCCn3cc(CNC(=O)C(=O)c4c(C)c(C(=O)Nc5ccc(F)c(F)c5)n(C)c4C)nn3)COCCOCCn3cc(CNC(=O)C(=O)c4c(C)c(C(=O)Nc5ccc(F)c(F)c5)n(C)c4C)nn3)nn2)c(C)n(C)c1C(=O)Nc1ccc(F)c(F)c1` [Compound 110], the EC50 in the data set on wild type HBV (setting [3]) was 0.1 to 1 µM. The EC90 in the data set with wild type HBV (setting [3]) fell in the range of 1 to 10 µM. For the same compound, the CC50 in data set [1] and in data set [2] (human) was greater than 100 µM in each case.

As for `Cc1c(C(=O)C(=O)NCc2cn(CCOCCOCC(COCCOCCn3cc(CNC(=O)C(=O)c4c(C)c(C(=O)Nc5ccc(F)c(F)c5)n(C)c4C)nn3)COCCOCCn3cc(CNC(=O)C(=O)c4c(C)c(C(=O)Nc5ccc(F)c(F)c5)n(C)c4C)nn3)nn2)c(C)n(C)c1C(=O)Nc1ccc(F)c(F)c1` [Compound 122], the EC50 in the data set on wild type HBV (setting [3]) fell in the range of 0.1 to 1 µM.

The values are drawn from US20230056135A1, “MONOMER AND MULTIMERIC ANTI-HBV AGENTS” (priority 2018, published 2023).
